Measurements: US10100052B2, “Compounds for the treatment of hepatitis B virus infection” (Gilead Sciences, Inc., priority 2016, dated 2018)

Tests used:
[1] = Pharmacokinetic analysis following intravenous administration to rats; format: in vivo; conditions: male, Sprague-Dawley, rat, intravenous infusion over 30 min, 1 mg/kg; for clearance / Vd: plasma; for Vd: read-out: Vss; for half-life: terminal plasma half-life
Description: Pharmacokinetic analysis was performed on various test compounds following intravenous or oral administration to male Sprague-Dawley rats.
For pharmacokinetic analysis of intravenously administered compounds, the test compounds were formulated in 5% NMP, 30% PG, 45% PEG 300 and 20% water at 0.5 mg/mL for IV infusion. For pharmacokinetic analysis following oral administration, compounds were formulated in the same vehicle and concentration.
Each dosing group consisted of 3 male, naïve Sprague-Dawley rats. At dosing, animals weighed approximately 0.28 kg. The animals were fasted overnight prior to dose administration and up to 4 hr after dosing. For studies of intravenous administration, the test article was administered to the animals by intravenous infusion over 30 min. The rate of infusion was adjusted according to the body weight of each animal to deliver a dose of 1 mg/kg. For studies of oral administration, the test article was administered according to the body weight of each animal to deliver a dose of 5 mg/kg.
For pharmacokinetic analysis of intravenously administered compounds, serial venous blood samples (approximately 0.3 mL each) were taken from each animal at 0, 0.250, 0.483, 0.583, 0.750, 1.50, 3.00, 6.00, 8.00, 12.0, and 24.0 hours after dosing. The blood samples were collected into Vacutainer™ tubes containing EDTA-K2 as the anti-coagulant and were immediately placed on wet ice pending centrifugation for plasma. An LC/MS/MS method was used to measure the concentration of the test compound in plasma. An aliquot of 100 μL of each plasma sample was added to a clean 96 well plate, and 400 μL of cold acetonitrile/internal standard solution (ACN)/(ISTD) was added. After protein precipitation, an aliquot of 100 μL of the supernatant was transferred to a clean 96-well plate and diluted with 175 μL of water. An aliquot of 10 μL of the above solution was injected into an ABSciex API-4000 LC/MS/MS system utilizing a HyPurity C18 HPLC column (30×2.1 mm, 3 m; Thermo-Hypersil Part #22103-032130). An Agilent 1200 series binary pump (P/N G1312A Bin Pump) was used for elution and separation, and an HTS Pal autosampler (LEAP Technologies, Carrboro, N.C.) was used for sample injection. A TSQ Quantum Ultra triple quadrupole mass spectrometer was utilized in selective reaction monitoring mode (Applied Biosystems, Foster City, Calif.). Liquid chromatography was performed using two mobile phases: mobile phase A contained 0.1% formic acid and 1% isopropanol in water; and mobile phase B contained 0.1% formic acid and 1% isopropanol in acetonitrile. Non-compartmental pharmacokinetic analysis was performed on the plasma concentration-time data.
The resulting data are shown in the first three columns of Table 4. In Table 4, CL refers to clearance, which characterizes the rate at which drug is removed from plasma. The lower the clearance of a drug is, the longer the elimination half-life is in the body. Vss refers to the steady state volume of distribution and indicates how well a drug is distributed into the tissues. The larger the Vss is, the longer the elimination half-life is in the body. T1/2 refers to the terminal plasma half-life of the compound.

MT-4 cytotoxicity assay = format: cell-based; conditions: human, MT-4 cells; five days incubation, Cell Titer Glo
Description: The MT-4 cell line (HTLV-1 transformed, human T lymphoblastoid cells) was obtained from the NIH AIDS Reagent program (Bethesda, Md.). MT-4 cells were maintained in RPMI-1640 supplemented with 10% fetal bovine serum (FBS, Hyclone, Logan, Utah). All cell culture media were also supplemented with 100 Units/mL penicillin, 100 μg/mL streptomycin (Gibco). For the MT-4 cytotoxicity assay, 0.4 μL of serially diluted solutions of certain compounds disclosed herein were added to 40 μL of cell maintenance media in 384-well black, solid bottom plate using a Biomek FX workstation (Beckman Coulter). Two thousand cells in 35 μL were added to each well using a Biotek uFlow Workstation (Biotek). Each assay plate contained 10 μM puromycin (final concentration) and 0.5% DMSO in RPMI-1640 as positive and negative controls, respectively. Assay plates were incubated for five days at 37° C. in an incubator set at 5% CO2 and 90% humidity. After five days, 22 μL of Cell Titer Glo reagent (Promega) was added to the assay plates with a Biotek uFlow Workstation. Plates were subsequently placed on a Perkin Elmer Envision Plate Reader for five minutes before the luminescence signal was read. CC50 values were calculated by non-linear regression using Pipeline Pilot software by applying a four parameter fit equation (Accelrys, San Diego, Calif.) and are reported in the following Table 2.

[2] = In vitro metabolic stability, hepatic microsomes (human); format: in vitro ADME; conditions: pooled hepatic microsomes, pH 7.4; human hepatic microsomes 1.0 mg/mL, 1 μM compound, NADPH and UDPGA cofactors; read-out: Microsome Stability T1/2 Human
Description: Pooled hepatic microsomes were diluted in […] potassium phosphate buffer to 1.0 mg/mL final protein concentration. Alamethicin was added to the microsomal fraction to permeabilize the membrane to allow access of the UDP-glucronic acid (UDPGA) co-substrate to the active site of the UDP glucuronosyl transferase (UGT) enzymes. The final concentration was 25 μg/mL (ratio 25 μg alamethicin/mg microsomal protein) and the microsomes were then placed on ice for 15 min prior to the start of the reaction. Test compound was added to a final concentration of 1 μM. Positive control compounds known to be metabolized by oxidative and UGT enzymes were used. The metabolic reaction was warmed to 37° C. and initiated by the addition of a cofactor mix that consisted of 1.55 mM NADP, 3.3 mM glucose-6-phosphate, 0.4 U/mL glucose-6-phosphate dehydrogenase, 5 mM UDP-glucuronic acid and 3.3 mM MgCl2 all dissolved in 0.1 M potassium phosphate buffer, pH 7.4. At 2, 12, 25, 45, and 65 min, 25 μL aliquots of the reaction mixture were transferred to plates containing 225 μl of quenching solution (acetonitrile containing 300 nM labetalol IS and 0.1% formic acid). After quenching, the plates are centrifuged at 3000×g for 30 minutes to precipitate proteins, and 10 μL aliquots of the supernatant are analyzed by HPLC coupled to a high-resolution mass spectrometer.
Quantification of test compounds and positive controls were performed using analyte/internal standard peak area ratios (PAR) measured on a Q-Exactive mass spectrometer (Thermo Scientific, San Jose, Calif.) coupled to an Aria Transcend LX-4 multiplex UHPLC system (Thermo Scientific, San Jose, Calif.). A Hypersil Gold C18 UHPLC column (1.9 […], 50×2.1 mm) was used with mobile phases A and B consisting of 0.1% formic acid in water and 0.1% formic acid in acetonitrile, respectively. […] Half-lives of compounds in the incubations were calculated from extracted data using GMSU/QuickCalc (Gubbs, Inc.) and data are summarized in the following Table 3.

Compound | clearance [1] | Vd [1] | half-life [1] | CC50 at 5 days (MT-4 cytotoxicity assay) | half-life at 1 μM [2]
COCCCOc1cc2c(cc1Cl)-c1cc(=O)c(C(=O)O)cn1[C@H](C1(C)CC1)C2 [Comparative Example 1] | 5.67 mL/min/kg | 0.57 L/kg | 1.62 h | 4.2 µM | 3.9 h
COCCCOc1cc2c(cc1Cl)-c1cc(=O)c(C(=O)O)cn1[C@H](C(C)(C)C)C2 [Comparative Example 2] | 5.05 mL/min/kg | 0.661 L/kg | 1.99 h | 5.7 µM | 4.9 h
COCCCOc1cc2c(cc1Cl)-c1cc(=O)c(C(=O)O)cn1N(C(C)(C)C)C2 [Example 2, 6-(tert-Butyl)-10-chloro-9-(3-methoxypropoxy)-2-oxo-6,7-dihydro-2H-pyrido[2,1-a]-phthalazine-3-carboxylic acid] | 2.97 mL/min/kg | 0.623 L/kg | 3.34 h | > 10 µM | > 5.83 h
